Measured values as given in US9000050B2, “SHIP1 modulators and related methods” (The University of British Columbia, priority 2010, dated 2015).
Values after ≈ are worked out from the molar mass of the structure shown.

Target: T1, His-hSHIP1 enzyme (Homo sapiens, UniProt Q92835)
T1 construct: His
T1 sequence (Q92835 1-1189): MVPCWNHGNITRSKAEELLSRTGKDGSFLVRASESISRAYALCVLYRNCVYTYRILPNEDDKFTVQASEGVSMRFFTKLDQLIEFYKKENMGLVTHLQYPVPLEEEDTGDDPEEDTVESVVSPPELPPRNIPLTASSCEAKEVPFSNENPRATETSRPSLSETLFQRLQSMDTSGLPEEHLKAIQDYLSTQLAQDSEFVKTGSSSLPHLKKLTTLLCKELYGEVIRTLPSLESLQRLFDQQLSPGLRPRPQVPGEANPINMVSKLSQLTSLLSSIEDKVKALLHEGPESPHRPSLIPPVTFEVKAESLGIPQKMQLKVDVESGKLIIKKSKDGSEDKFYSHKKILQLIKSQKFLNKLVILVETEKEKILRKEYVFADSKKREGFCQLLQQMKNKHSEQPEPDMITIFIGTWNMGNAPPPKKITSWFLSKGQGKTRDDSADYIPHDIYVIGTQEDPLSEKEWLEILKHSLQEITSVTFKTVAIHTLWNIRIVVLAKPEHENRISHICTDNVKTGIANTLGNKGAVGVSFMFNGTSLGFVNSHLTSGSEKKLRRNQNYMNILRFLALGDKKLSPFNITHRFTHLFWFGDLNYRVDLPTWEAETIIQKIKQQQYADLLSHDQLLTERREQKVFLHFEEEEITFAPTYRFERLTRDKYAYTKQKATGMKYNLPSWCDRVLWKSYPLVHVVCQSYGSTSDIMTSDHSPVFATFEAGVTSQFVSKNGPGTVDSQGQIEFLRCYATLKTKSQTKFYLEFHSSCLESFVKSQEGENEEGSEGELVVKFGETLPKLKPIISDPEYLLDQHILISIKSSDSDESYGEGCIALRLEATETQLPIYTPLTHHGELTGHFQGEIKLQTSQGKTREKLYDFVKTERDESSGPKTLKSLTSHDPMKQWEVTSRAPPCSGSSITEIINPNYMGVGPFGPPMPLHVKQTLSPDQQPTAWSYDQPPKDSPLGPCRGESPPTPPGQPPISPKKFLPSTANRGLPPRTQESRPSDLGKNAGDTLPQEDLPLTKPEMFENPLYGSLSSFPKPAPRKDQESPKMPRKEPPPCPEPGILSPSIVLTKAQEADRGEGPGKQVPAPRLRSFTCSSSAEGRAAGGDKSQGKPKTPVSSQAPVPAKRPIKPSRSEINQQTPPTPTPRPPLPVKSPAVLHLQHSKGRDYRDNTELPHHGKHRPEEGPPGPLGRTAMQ
Assay: His-hSHIP1 enzyme activation assay (IP4 substrate, Biomol Green phosphate release)
Type: biochemical
Settings: percentage increase relative to background; concentrations ≦300 μM
Method: Test compounds are dissolved in 95% ethanol to form stock solutions. Before screening, the stock solutions are diluted with Phosphatase Assay Buffer (20 mM Tris-HCL, 10 mM MgCl2 pH 7.5, 0.02% Tween 20) to form working assay solutions that contain 10% ethanol. The assay is carried out on 96-well microtiter plates using a modified procedure of that reported by Ong et al., Blood 110, 1942-1949, 2007 and Yang et al., Org Lett 7, 1073-1076, 2005, both of which references are incorporated herein by reference in their entirety.
Each reaction contains 5 μL of His-hSHIP1 enzyme (15-20 ng), 10 μL of the substrate, 1,3,4,5-inositol tetrakisphosphate (IP4; 50 μM final), 5 μL of Phosphatase Assay Buffer, and 5 μL of test compound at various concentrations in 10% ethanol (0-300 μM final). Control blanks are also prepared by replacing His-hSHIP1 enzyme, IP4, or test compounds with Phosphatase Assay Buffer. After adding the reaction components in a 96-well microtiter plate on ice, the reaction is mixed by briefly shaking the plate vigorously. The reaction is then incubated at 37° C. for 15 min with gentle shaking followed by addition of 100 μL of Biomol Green Reagent (BIOMOL, PA, USA) to terminate the reaction. The free phosphate released from IP4 by His-hSHIP1 binds to the Biomol Green Reagent, which turns the dye to green color. After incubating the mixture for 20 min at room temperature for color development, the absorbance is read with SpectraMax Plus 96-well plate reader (Molecular Devices, Sunnyvale, Calif., USA) at a wavelength of 650 nm.
Percent (%) activation in Table 2 is expressed as a percentage increase relative to background. Scoring is expressed as follows: +(<25%); ++(≧25% but <50%); +++(≧50%).

Row | Compound | Activation of His-hSHIP1 Enzyme, Scoring (percent activation)
1 | COc1cc(C)c2c(c1)C[C@H]1[C@]3(C)CC[C@@H](O)C(C)(C)[C@H]3CC[C@]21C (racemic) [17a/17b] | ++ (≧25% but <50%)
2 | COc1cc2c(c(OC)c1)[C@@]1(C)CC[C@@H]3C(C)(C)[C@H](O)CC[C@@]3(C)[C@@H]1C2 (racemic) [5a/5b] | ++ (≧25% but <50%)
3 | CC1(C)C(=O)CC[C@]2(C)[C@@H]1CC[C@]1(C)c3c(O)cc(O)cc3C[C@@H]21 (racemic) [7a/7b] | +++ (≧50%)
4 | CC1(C)[C@@H](N)CC[C@]2(C)[C@H]3Cc4cc(O)cc(O)c4[C@]3(C)CC[C@@H]12 [Compound 9b] | + (<25%)
5 | CC1(C)[C@H]2CC[C@]3(C)c4c(O)cc(O)cc4C[C@H]3[C@]2(C)CC[C@@H]1N.Cl [8a•HCl, (3S,4aS,6aS,11aS,11bS)-3-Amino-4,4,6a,11b-tetramethyl-2,3,4,4a,5,6,6a,11,11a,11b-decahydro-1H-benzo[a]fluorene-7,9-diol Hydrochloride] | + (<25%)
6 | CC1(C)[C@H](O)CC[C@]2(C)[C@@H]1CC[C@]1(C)c3c(O)cc(O)cc3C[C@@H]21 (racemic) [16a/16b] | ++ (≧25% but <50%)
7 | Cc1cc(O)cc2c1[C@@]1(C)CC[C@@H]3C(C)(C)C(=O)CC[C@@]3(C)[C@@H]1C2 (racemic) [19a/19b] | ++ (≧25% but <50%)

Test system: not listed separately
Assay: Water solubility (24 h stirring in deionized water, HPLC)
Type: physicochemical
Settings: thermodynamic from solid, stirred 24 hours, read-out: Soluble Concentration
Method: Samples are weighed accurately in duplicate (˜3 mg each) in 4 mL glass vials. The appropriate amount of deionized water is added to obtain a final concentration of 6 mg/mL. A stir bar is placed in the vial and the two mixtures are stirred for 24 hours, after which the samples are filtered using a glass filter membrane. The resulting filtrate is centrifuged in a glass conical tube for 10 minutes at 10,000 rpm to sediment any precipitate that may have passed through the glass membrane. The supernatant is sampled for HPLC analysis. The concentration of the test compound is determined by HPLC using a six-point standard curve of the compound prepared in methanol.

Row | Compound | solubility at 24 h [µg/mL]
8 | CC1(C)[C@@H](O)CC[C@]2(C)[C@H]3Cc4cc(O)cc(O)c4[C@]3(C)CC[C@@H]12 [Compound 16b, (3S,4aR,6aR,11aR,11bR)-2,3,4,4a,5,6,6a,11,11a,11b-decahydro-4,4,6a,11b-tetramethyl-1H-benzo[a]fluorene-3,7,9-triol] | 133 (≈ 402 µM)
9 | CC1(C)[C@H]2CC[C@]3(C)c4c(O)cc(O)cc4C[C@H]3[C@]2(C)CC[C@@H]1N.Cl [8a•HCl, (3S,4aS,6aS,11aS,11bS)-3-Amino-4,4,6a,11b-tetramethyl-2,3,4,4a,5,6,6a,11,11a,11b-decahydro-1H-benzo[a]fluorene-7,9-diol Hydrochloride] | 1400
